Assay results as given in article PMC8452302 (CPT: Pharmacometrics & Systems Pharmacology, 2021).
pIC50: −log10 of the molar value. Read-outs that look alike come from different tables or passages of the source.

How the values were obtained:
OATP1B1 [1] = target: T1, OATP1B1 (Homo sapiens, UniProt Q9Y6L6); assay: Static DDI risk assessment, OATP1B1 R-value; conditions: 1 + Iin,max,u/IC50; metabolite/combination additive; Imax,u for IV
T1 sequence (Q9Y6L6 1-691): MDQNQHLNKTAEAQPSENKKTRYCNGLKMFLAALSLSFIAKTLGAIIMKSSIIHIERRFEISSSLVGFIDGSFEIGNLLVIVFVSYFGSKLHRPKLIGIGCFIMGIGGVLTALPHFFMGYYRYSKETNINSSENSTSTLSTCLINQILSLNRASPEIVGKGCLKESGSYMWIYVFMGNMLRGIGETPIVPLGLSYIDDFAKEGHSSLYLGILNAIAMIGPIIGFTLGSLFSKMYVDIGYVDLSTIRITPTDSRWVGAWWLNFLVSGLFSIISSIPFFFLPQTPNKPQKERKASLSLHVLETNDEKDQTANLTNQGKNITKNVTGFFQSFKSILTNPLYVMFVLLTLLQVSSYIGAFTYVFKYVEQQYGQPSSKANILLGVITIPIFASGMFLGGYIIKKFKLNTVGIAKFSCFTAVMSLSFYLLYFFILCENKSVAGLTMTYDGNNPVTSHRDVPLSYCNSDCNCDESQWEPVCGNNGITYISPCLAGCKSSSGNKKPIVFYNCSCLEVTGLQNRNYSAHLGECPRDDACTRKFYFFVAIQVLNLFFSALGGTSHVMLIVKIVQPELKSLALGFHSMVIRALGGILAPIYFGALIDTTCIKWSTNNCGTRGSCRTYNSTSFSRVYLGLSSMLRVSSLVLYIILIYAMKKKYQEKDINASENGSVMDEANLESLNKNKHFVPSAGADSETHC

OATP1B1 [2] = target: T1, OATP1B1; assay: In vitro OATP1B1 inhibition, transfected HEK293 cells, rosuvastatin probe; format: cell-based
BCRP = target: T2, BCRP (Homo sapiens, UniProt Q9UNQ0); assay: In vitro BCRP inhibition, HEK293-BCRP membrane vesicles, rosuvastatin probe; format: biochemical
T2 sequence (Q9UNQ0 1-655): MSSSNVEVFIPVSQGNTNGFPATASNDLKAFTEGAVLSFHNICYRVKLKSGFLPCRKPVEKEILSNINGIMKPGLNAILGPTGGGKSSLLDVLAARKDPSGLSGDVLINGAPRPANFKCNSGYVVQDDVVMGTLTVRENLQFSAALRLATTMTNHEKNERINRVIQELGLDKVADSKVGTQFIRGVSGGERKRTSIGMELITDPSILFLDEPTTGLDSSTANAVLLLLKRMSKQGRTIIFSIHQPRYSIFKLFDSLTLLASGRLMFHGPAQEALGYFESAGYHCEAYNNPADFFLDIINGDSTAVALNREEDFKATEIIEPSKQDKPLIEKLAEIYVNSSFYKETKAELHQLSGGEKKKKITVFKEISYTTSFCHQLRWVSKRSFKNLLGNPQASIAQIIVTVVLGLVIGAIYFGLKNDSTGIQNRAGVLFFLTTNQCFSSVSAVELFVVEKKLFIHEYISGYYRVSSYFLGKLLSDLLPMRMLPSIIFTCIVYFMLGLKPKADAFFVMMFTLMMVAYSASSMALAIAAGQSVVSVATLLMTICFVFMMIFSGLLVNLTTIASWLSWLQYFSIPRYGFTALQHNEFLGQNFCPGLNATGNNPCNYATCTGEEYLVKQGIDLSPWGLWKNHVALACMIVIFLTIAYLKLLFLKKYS

OATP1B3 [3] = target: T3, OATP1B3 (Homo sapiens, UniProt Q9NPD5); assay: In vitro OATP1B3 inhibition, transfected HEK293 cells, rosuvastatin probe; format: cell-based
T3 sequence (Q9NPD5 1-702): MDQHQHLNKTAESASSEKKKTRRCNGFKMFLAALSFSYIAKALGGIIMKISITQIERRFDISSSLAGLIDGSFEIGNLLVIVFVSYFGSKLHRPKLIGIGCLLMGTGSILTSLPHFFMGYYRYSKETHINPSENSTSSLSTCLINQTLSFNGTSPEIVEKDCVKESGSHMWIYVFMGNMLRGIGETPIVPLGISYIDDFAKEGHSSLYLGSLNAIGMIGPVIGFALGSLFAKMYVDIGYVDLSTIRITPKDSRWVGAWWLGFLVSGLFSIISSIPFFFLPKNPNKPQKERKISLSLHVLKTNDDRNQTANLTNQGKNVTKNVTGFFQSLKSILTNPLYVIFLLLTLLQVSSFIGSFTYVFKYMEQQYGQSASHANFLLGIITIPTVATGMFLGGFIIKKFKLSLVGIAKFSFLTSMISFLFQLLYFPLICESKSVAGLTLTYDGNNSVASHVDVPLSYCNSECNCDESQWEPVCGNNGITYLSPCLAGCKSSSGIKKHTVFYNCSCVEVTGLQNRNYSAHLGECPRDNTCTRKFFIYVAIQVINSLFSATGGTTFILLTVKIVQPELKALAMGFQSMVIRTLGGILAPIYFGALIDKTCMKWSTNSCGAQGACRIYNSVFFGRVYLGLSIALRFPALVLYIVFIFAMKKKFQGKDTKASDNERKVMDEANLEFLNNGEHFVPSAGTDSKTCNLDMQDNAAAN

[4] = cited from earlier work; for Rosuvastatin AUC ratio: observed, rosuvastatin with vs without inhibitor; for Rosuvastatin AUC ratio / Cmax ratio Observed: ref Table S1; for Cmax ratio Observed: rosuvastatin with/without inhibitor, regimens as in table row
OATP1B3 [5] = target: T3, OATP1B3; assay: Static DDI risk assessment, OATP1B3 R-value; conditions: 1 + Iin,max,u/IC50; metabolite/combination additive; Imax,u for IV
[6] = read-out: BCRP IC50, membrane vesicles, rosuvastatin 0.2 µM probe

Row | SMILES | 1B1 R-Value (OATP1B1 [1]) | pIC50 (OATP1B1 [2]) | pIC50 (BCRP) | IC50 at 1 min (OATP1B3 [3]; human, HEK293 cells transfected with OATP1B3, pH 7.4, probe rosuvastatin 0.3 µM) | pIC50 (BCRP; [6]) | Rosuvastatin AUC ratio [4] | 1B3 R-Value (OATP1B3 [5]) | Cmax ratio Observed [4] | pIC50 (OATP1B3 [3]) | reduction of renal clearance of rosuvastatin ([4]; probenecid 1000 mg) | Rosuvastatin AUC ratio ([4]; listed as darolutamide)
1 | COc1ccnc(C[S+]([O-])c2nc3ccc(OC(F)F)cc3[nH]2)c1OC (stereo not drawn) [Pantoprazole] | 1.01 | < 3.30 | 5.21 | > 500 µM |  |  |  |  |  |  | 
2 | COc1cc(Nc2ncc(F)c(Nc3ccc4c(n3)NC(=O)C(C)(C)O4)n2)cc(OC)c1OC [R406] |  |  |  |  | 7.19 |  |  |  |  |  | 
3 | O=c1ccc2ccc(OCCCCN3CCN(c4cccc5sccc45)CC3)cc2[nH]1 [Brexpiprazole] | 1.00 | 4.88 | 4.00 |  |  | 1.12 |  |  |  |  | 
4 | CC(=O)c1cc(C(=O)N[C@@H](C)Cn2ccc(-c3ccc(C#N)c(Cl)c3)n2)[nH]n1 [Keto‐darolutamide] |  |  |  |  | 6.25 |  |  |  |  |  | 
5 | CC(O)C(C)n1ncn(-c2ccc(N3CCN(c4ccc(OCC5COC(Cn6cncn6)(c6ccc(Cl)cc6Cl)O5)cc4)CC3)cc2)c1=O (stereo not drawn) [Hydroxy‐itraconazole] |  | 5.85 |  |  |  |  |  |  |  |  | 
6 | COC(=O)N[C@H](C(=O)N1CCC[C@H]1c1nc(-c2ccc(-c3ccc(-c4c[nH]c([C@@H]5CCCN5C(=O)[C@@H](NC(=O)OC)C(C)C)n4)cc3)cc2)c[nH]1)C(C)C [Daclatasvir] | 1.18 |  | 5.96 |  |  | 1.47 | 1.08 |  |  |  | 
7 | COC[C@H]1C[C@@H](c2ncc(-c3ccc4c(c3)COc3cc5c(ccc6nc([C@@H]7CC[C@H](C)N7C(=O)[C@@H](NC(=O)OC)C(C)C)[nH]c65)cc3-4)[nH]2)N(C(=O)[C@H](NC(=O)OC)c2ccccc2)C1 [Velpatasvir] | 1.00 |  | 7.05 |  |  | 2.59 | 1.02 | 2.50 |  |  | 
8 | C[C@](O)(COc1ccc(C#N)cc1)C(=O)Nc1ccc(C#N)c(C(F)(F)F)c1 [Enobosarm] | 1.00 |  | 5.96 |  |  | 1.18 |  |  |  |  | 
9 | CO[C@H]1/C=C/O[C@@]2(C)Oc3c(C)c(O)c4c(O)c(c(/C=N/N5CCN(C)CC5)c(O)c4c3C2=O)NC(=O)/C(C)=C\C=C\[C@H](C)[C@H](O)[C@@H](C)[C@@H](O)[C@@H](C)[C@H](OC(C)=O)[C@@H]1C [Rifampicin] | 10.20 | 6.54 |  |  |  |  | 4.65 |  | 6.14 |  | 
10 | Cc1ccc(C)c(OCCCC(C)(C)C(=O)O)c1 [Gemfibrozil] | 2.60 |  | 3.53 |  |  | 1.88 | 1.15 | 2.21 | 5.00 |  | 
11 | CCCN(CCC)S(=O)(=O)c1ccc(C(=O)O)cc1 [Probenecid] | 1.99 |  | 3.67 |  |  |  | 1.11 |  | 3.47 | ~80% | 
12 | CC[C@H]1OC(=O)[C@H](C)[C@@H](O[C@H]2C[C@@](C)(OC)[C@@H](O)[C@H](C)O2)[C@H](C)[C@@H](O[C@@H]2O[C@H](C)C[C@H](N(C)C)[C@H]2O)[C@](C)(OC)C[C@@H](C)C(=O)[C@H](C)[C@@H](O)[C@]1(C)O [Clarithromcyin] | 1.99 |  |  |  | 3.39 | 1.58 | 1.35 |  |  |  | 
13 | CC[C@H](Nc1ncnc2[nH]cnc12)c1nc2cccc(F)c2c(=O)n1-c1ccccc1 [Idelalisib] | 1.19 | 5.50 | 4.26 |  |  |  |  |  | 5.15 |  | 
14 | CC[C@H]1[C@@H](O)[C@@H]2[C@H](CC[C@]3(C)[C@@H]([C@H](C)CCC(=O)O)CC[C@@H]23)[C@@]2(C)CC[C@@H](O)C[C@@H]12 [Obeticholic acid] | 1.02 | 5.71 | 5.39 |  |  | 1.25 | 1.02 |  | 5.67 |  | 
15 | CNC(=O)c1ccc(-c2cnc3ncc(Cc4ccc5ncccc5c4)n3n2)cc1F [Capmatinib] | 1.35 | 5.48 | 6.16 |  |  | 2.03 | 1.08 | 3.05 | 4.84 |  | 
16 | CCCc1nc2c(C)cc(-c3nc4ccccc4n3C)cc2n1Cc1ccc(-c2ccccc2C(=O)O)cc1 [Telmisartan] | 1.01 | 5.51 | 6.21 |  |  | 1.20 | 1.03 |  |  |  | 
17 | O=C(O)C[C@H]1CC[C@H](c2ccc(-c3ccc(Nc4ccc(C(F)(F)F)nc4)cn3)cc2)CC1 [Pradigastat] | 1.03 | 5.83 | 6.15 |  |  | 0.96 | 1.01 |  |  |  | 
18 | COc1cc(Nc2ncc(F)c(Nc3ccc4c(n3)N(COP(=O)(O)O)C(=O)C(C)(C)O4)n2)cc(OC)c1OC [Fostamatinib] |  | 6.05 | 5.70 |  |  | 1.95 |  | 1.90 | 5.13 |  | 
19 | CC(C)c1noc(N2CCC(COc3ccc(-c4ccc(S(C)(=O)=O)cc4)nc3)CC2)n1 [GSK1292263] | 1.03 | < 4.52 | 5.52 |  |  | 1.39 |  |  |  |  | 
20 | CC(C)(C)c1ccc(S(=O)(=O)Nc2ccc(Cl)cc2C(=O)c2cc[n+]([O-])cc2)cc1 [Vercirnon] | 2.02 | 5.68 | 5.48 |  |  | 0.99 |  |  |  |  | 
21 | CCC(C)n1ncn(-c2ccc(N3CCN(c4ccc(OCC5COC(Cn6cncn6)(c6ccc(Cl)cc6Cl)O5)cc4)CC3)cc2)c1=O (stereo not drawn) [Itraconazole] | 1.01 | 4.89 | 5.49 |  |  | 1.26 | 1.00 | 1.38 | < 4.70 |  | 
22 | COC(=O)N[C@H](C(=O)N1CCC[C@H]1c1nc(-c2ccc3c(c2)O[C@@H](c2ccccc2)n2c-3cc3cc(-c4c[nH]c([C@@H]5CCCN5C(=O)[C@@H](NC(=O)OC)C(C)C)n4)ccc32)c[nH]1)C(C)C [Elbasvir] | 1.00 | 5.11 | 6.85 |  |  | 1.42 | 1.00 |  | < 5.00 |  | 
23 | CC(O)c1cc(C(=O)N[C@@H](C)Cn2ccc(-c3ccc(C#N)c(Cl)c3)n2)[nH]n1 (stereo partly drawn) [Darolutamide] | 1.09 |  | 7.05 |  |  | 5.50 | 1.02 | 5.50 | 4.69 |  | > 5
